Results: patent US10376468B2, “Block copolymers and self-assembling nanoparticles formed therefrom” (International Business Machines Corporation, priority 2017, dated 2019)

System: nude BALB/c mice bearing subcutaneous PC-3 tumors
Assay: Biodistribution of DiR-loaded mixed micelles, whole body live imaging
Assay type: in vivo
Conditions: tail-vein injection
Excerpt: To test the biodistribution of the micelles of the invention, DiR, a near-infrared fluorophore, was encapsulated in MM5D micelles and administered through tail-vein intravenous injection to nude BALB/c mice bearing subcutaneous PC-3 tumors. The in vivo real-time biodistribution of the fluorophore was studied by whole body live imaging at various time points over seven days. An equivalent amount of free DiR was similarly administered to a control group of mice.
The loading of DiR in MM5D micelles was carried out according to the DOX-loading protocol described above. Briefly, polymer (10 mg) and DiR (0.3 mg) were dissolved in DMSO (2 mL) and the mixture pipetted drop-by-drop into 10 mL of deionized water, with sonification for 10 minutes. The solution was dialyzed against deionized water for 48 hours, with the water changed at 3-, 6-, and 24-hours.
PC-3 cells (5 □ 106) suspended in Matrigel (1:1 ratio) were injected subcutaneously (200 μL) into the right flank of male BALB/c mice. Five weeks post-injection, when the tumor reached 5-7 mm in diameter, mice were treated with 8 mg/kg DiR-loaded mixed micelles via tail-vein injection or an equivalent amount of free DiR.
Whole-body fluorescence images were taken using Xenogen IVIS 100 with an ICG filter (excitation 710-760 nm, emission at 810-875 nm) at time points ranging from 30 minutes to 7-days post-administration. Anesthetized animals (n=3 for micelle formulation and n=2 for free DiR) were placed ion one lateral position on a heated plate (37° C.) for image acquisition with an exposure time set to 2 seconds. Tumors and organs were removed from sacrificed mice after 7-days post-administration and then imaged.

[1] = organs removed 7-days post-administration

DiR signal in the subcutaneous tumor at 48-hours post-injection (8 mg/kg or equivalent free DiR): Little or no signal | Distribution of DiR fluorescence signal at 24-hours (8 mg/kg or equivalent free DiR): concentrated strongly in the liver | DiR signal in the tumor (FIG. 9, tumors and organs) [1]: little or no signal in the tumor
Compound: CCCCCCCCCCCCCCCCCCN1/C(=C/C=C/C=C/C=C/C2=[N+](CCCCCCCCCCCCCCCCCC)c3ccccc3C2(C)C)C(C)(C)c2ccccc21.[I-] [free DiR]
Tissues with strongest DiR signal (FIG. 9, tumors and organs) [1]: strongest signal in the lungs, liver, and spleen
